This is an account of results in publication PMC7533260, “Design and tests of prospective property predictions for novel antimalarial 2-aminopropylaminoquinolones” (Journal of Computer-Aided Molecular Design, 2020).

The target of test [1] is T1, s-PfDHODH (Plasmodium falciparum, UniProt Q08210).
T1 sequence (Q08210 158-569 limits assumed): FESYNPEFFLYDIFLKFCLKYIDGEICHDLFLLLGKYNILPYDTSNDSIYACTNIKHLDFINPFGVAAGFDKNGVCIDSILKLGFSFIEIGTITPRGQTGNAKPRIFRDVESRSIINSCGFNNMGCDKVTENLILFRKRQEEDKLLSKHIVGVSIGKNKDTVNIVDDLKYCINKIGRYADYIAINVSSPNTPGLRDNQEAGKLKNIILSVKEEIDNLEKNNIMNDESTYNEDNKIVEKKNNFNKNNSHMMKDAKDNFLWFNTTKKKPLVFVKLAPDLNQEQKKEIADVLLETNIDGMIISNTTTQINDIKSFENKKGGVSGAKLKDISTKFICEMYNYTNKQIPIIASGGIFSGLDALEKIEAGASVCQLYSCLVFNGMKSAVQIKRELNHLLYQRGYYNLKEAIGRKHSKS
Briefly: Inhibition of s-PfDHODH in vitro (Tres Cantos laboratory). The settings on record: read-out: s-PfDHODH in vitro IC50; assayed at the Tres Cantos laboratory.
From the text: The literature data set used to build our PfDHODH inhibition models was based on in vitro assays carried out using the truncated, soluble form of the enzyme introduced by Baldwin et al. [10].

Test [2] has as its system intact PfDHODH. The test is described as follows: Rescue from growth inhibition by transfection with ScDHODH (Dd2attB_yeastDHODH vs parental Dd2attB). The test is classed as cell-based, Plasmodium falciparum. The settings on record: P. falciparum in blood culture; Tres Cantos, previously unpublished. From the text: Fortunately, there is a way to address this question, though the method is somewhat indirect. P. falciparum parasites engineered to express DHODH from the yeast Saccharamyces cerevisiae (ScDHODH) use fumarate as an oxidizing agent instead of ubiquinone, so their growth is not inhibited by (i.e., they are “rescued from”) inhibitors that compete with ubiquinone. Painter et al. used this technique to validate PfDHODH as an antimalarial drug target.
Unbeknownst to the Simulations Plus and U.C. Riverside groups, the Tres Cantos group had already tested several 2-aminoquinolone actives from the GSK antimalarial data set for rescue by ScDHODH transfection. […] An additional sixteen 2-amino-4-quinolones having different bridging groups were also assayed; three of these were clearly subject to rescue, whereas three yielded ambiguous results.
The Dd2 cell line containing yeast dihydroorotate dehydrogenase (DHODH) and its parental strain were cultured as described in 4.3.1 and potency of compounds determined following procedures outlined in 4.3.2. The ScURA1 gene from Saccharomyces cerevisiae was amplified from genomic DNA and cloned into the pLN-14 vector. The P. falciparum Dd2attB strain was transfected by electroporation, and stable transfectants were selected with blasticidin. Both the Dd2attB_yeastDHODH strain and its parental strain, Dd2attB, were used in these assays to determine if parasite growth inhibition was mediated by inhibition of PfDHODH following rationale previously described in Painter et al..

The subject of test [3] is P. falciparum Dd2 (chloroquine-resistant). The test is described as follows: XC50 in asynchronous blood culture, [3H]hypoxanthine incorporation, strain Dd2. The test is classed as cell-based, Plasmodium falciparum. The settings on record: for IC50: Plasmodium falciparum, DD2, concentration required to reduce parasite growth rate by 50%, chloroquine-resistant strain, asynchronous blood culture; for Resistance ratio (±): ratio of XC50 between resistant (Dd2) and susceptible (3d7) strains. As to the method: (§1) Antimalarial activity in blood culture was determined as previously described at the University of California, Riverside, under conditions essentially identical to those used by GSK [19].
(§2) P. falciparum 3D7A and Dd2 strains used in this study were obtained from the Malaria Research and Reference Reagent Resource Center (MR4). Parasites were grown in human erythrocytes (obtained from a transfusion blood bank in Madrid, Spain) with Albumax II medium as previously described. RPMI 1640 medium (Gibco) was supplemented with 0.5% Albumax II (Invitrogen), 2% D-sucrose (Sigma-Aldrich), 0.3% glutamine (Sigma-Aldrich), and 150 µM hypoxanthine (Sigma-Aldrich). Cultures were maintained at 37°C at an atmosphere of 5% O2, 5% CO2, and 90% N2.
(§3) Parasite growth inhibition assays and 50% inhibitory concentration (XC50) determinations were carried out by following standard methods using the [^3H]hypoxanthine incorporation assay. Briefly, cultures with 0.5% parasitemia and 2% hematocrit were incubated with the drug as described for 48 h. After this period, parasites were harvested and the amount of incorporated radiolabeled precursor was determined. Radioactivity was added 24 h before harvesting of the parasites.

The test system of test [4] is P. falciparum 3D7 (chloroquine-susceptible). Briefly: XC50 in asynchronous blood culture, [3H]hypoxanthine incorporation, strain 3D7. The test is classed as cell-based. The settings on record: Plasmodium falciparum, concentration required to reduce parasite growth rate by 50%. As to the method:
as §1, §2, §3

Test [5] deals with T1, s-PfDHODH. Briefly: Literature inhibition data for soluble recombinant PfDHODH (s-PfDHODH), dodecylubiquinone as substrate. Type of test: biochemical. The source says:
Data on PfDHODH inhibition were collected from the literature for a structurally diverse group of compounds. These included triazolopyrimidines, diphenylureas, and 2-cyano-3-hydroxy acrylanilides, among others. Quantitative data were not available for inhibition of the intact enzyme, which is bound to the mitochondrial membrane by its hydrophobic N-terminus in vivo [16]. […] The very low solubility of CoQ-10 limits its utility in vitro, so an artificial ubiquinone (dodecylubiquinone [DQ]) is usually used as substrate instead.
The IC50 data for these 89 compounds were converted to inhibition constants (Ki’s) by assuming competitive inhibition against DQ and applying the method described by Cheng and Prusoff. Two artificial neural network ensemble (ANNE) regression models were constructed (henceforth referred to as Model A and Model B) using ADMET Modeler™ module of ADMET Predictor® [18]. The models were built on distinct 20% hold-out test sets (see Supplementary Methods for details).

Test [6] concerns the target T1, s-PfDHODH. Further details: method as in earlier work. To be noted: literature data used to construct QSAR models; cited from earlier work.
Test [7] deals with human enzyme (DHODH). Further details: method as in PMID 16510978. To be noted: cited from earlier work.
Test [8] addresses full-length enzyme from P. falciparum (PfDHODH). Further details: method as in PMID 7909690. To be noted: after solubilization in Triton X-100; cited from earlier work.
For test [9], the target named is s-RrDHODH. Further details: method as in PMID 16510978. The settings on record: read-out: Ki, s-RrDHODH from rat; cited from earlier work.
Test [10] addresses truncated enzyme (PfDHODH). Details: method as in PMID 16510978. To be noted: assayed under similar conditions; cited from earlier work.
The mark [11] stands for this setting: converted from literature IC50 assuming competitive inhibition against DQ (Cheng and Prusoff), read-out: PfDHODH Ki.

Where two headings read alike, the source gives them in different places.

For the compound `O=C(O)C(O)C(=O)O` [CID 44,537,350], the IC50 in test [1] came to 0.86 µM.
Turning to `O=c1cc(NC[C@H]2CCC[C@@H]2NC2CCCc3c2[nH]c2ccccc32)[nH]c2ccccc12` (stereo partly shown) [CID 44533954], the “rescue of parasites from growth inhibition by ScDHODH transfection” value in [2] is “not rescued”.
For `Cn1cc(CNCC2(CNc3cc(=O)c4ccccc4[nH]3)CCCC2)n(C)c1=O` [Compound 12a, 2-(1-((1,3-dimethyl-2-oxo-imidazol-4-yl)methylaminomethyl)cyclopentyl)methylamino-1H-quinolin-4-one], in test [3], half-maximal inhibition (IC50) required 46 µM and the “Resistance ratio (±)” value turned out to be 4.6. In test [4], this compound registered a concentration for half-maximal inhibition (IC50) of 10 µM.
In the case of `O=c1cc(NCC2(CNCc3cn(Cc4ccccc4)c4ccccc34)CCCCC2)[nH]c2ccccc12` [CID 10300864], in test [2], the “rescue of parasites from growth inhibition by ScDHODH transfection” value was “rescued”.
In the case of `COc1ccc2[nH]c(NCC3(CNC4CCNc5ccccc54)CCCC3)cc(=O)c2c1` (stereo not shown) [Compound 11c, 6-methoxy-2-(1-((1,2,3,4-tetrahydroquinolin-4-yl)aminomethyl)cyclopentyl)methylamino-1H-quinolin-4-one], in test [3], the IC50 turned out to be 1.78 µM and the “Resistance ratio (±)” value amounted to 4.8. The concentration for half-maximal inhibition (IC50) in test [4] came to 0.37 µM.
In the case of `O=c1cc(NCCCNCc2sc(Br)nc2Br)[nH]c2ccccc12` [CID 44534653], the “rescue of parasites from growth inhibition by ScDHODH transfection” value in test [2] is reported as “rescued”.
`C/C(O)=C(/C#N)C(=O)Nc1ccc(-c2cccc(Cl)c2)cc1Cl` [Compound D22]: in [5] (setting [11]), the Ki worked out at 5.8 µM. The IC50 in test [6] was 49.1 µM.
For `Cn1cc(CNCC2(CNc3cc(=O)c4cc(Cl)ccc4[nH]3)CCCC2)n(C)c1=O` [Compound 12b, 6-chloro-2-(1-((1,3-dimethyl-2-oxo-imidazol-4-yl)methylaminomethyl)cyclopentyl)methylamino-1H-quinolin-4-one], in [3], inhibition was half-maximal at 6.4 µM (IC50) and the “Resistance ratio (±)” value turned out to be 3.9. The same compound gave a half-maximal inhibitory concentration (IC50) in test [4] of 1.61 µM.
For `Cc1cc(Nc2ccc(C(F)(F)F)c(F)c2)n2ncnc2n1` [Compound G47], the Ki in test [5] was found to be 0.03 µM. For the same compound, in test [6], the IC50 was 0.08 µM.
`C/C(O)=C(/C#N)C(=O)Nc1ccc(-c2cccc(Cl)c2Cl)cc1Cl` [Compound D20]: the Ki in test [5] (setting [11]) came to 1.2 µM. Also, the IC50 in test [6] is 9.9 µM.
In the case of `O=C1C(O)=C([C@H]2CC[C@H](c3ccc(Cl)cc3)CC2)C(=O)c2ccccc21` [Atovaquone], the Ki in [7] is ~2 µM; in [8], 27 µM; in test [9], ~0.08 µM; in test [10], > 500 µM.
Take `CCOc1c(CNCCCNc2cc(=O)c3ccccc3[nH]2)cc(Br)cc1OC` [CID 44373601]: the “rescue of parasites from growth inhibition by ScDHODH transfection” value in test [2] was “not rescued”.
In the case of `C/C(O)=C(/C#N)C(=O)Nc1ccc(-c2cccc(Cl)c2)c(Cl)c1` [Compound D25], the Ki in test [5] (setting [11]) is 28 µM. Also, the IC50 in test [6] was 237 µM.
With `CCOc1cccc(-c2ccc(NC(=O)/C(C#N)=C(\C)O)cc2)c1` [Compound D29], the Ki in test [5] was 21.5 µM. Besides, the IC50 in [6] is 182 µM.
